Measurements from patent US20120016011A1, “RNA Interference Mediated Inhibition of Connective Tissue Growth Factor (CTGF) Gene Expression Using Short Interfering Nucleic Acid (siNA)” (Merck Sharp & Dohme Corp., priority 2009, published 2012).
[invAb] = inverted abasic unit; m = 2'-O-methyl; r = 2'-OH (RNA); f = 2'-fluoro

Legend:
CTGF mRNA [1] = experiment: CTGF mRNA knockdown (Taqman RT-PCR) after siNA transfection of human NHLF cells; assay type: cell-based; conditions: 10 nM siNA, 24 hrs, average of 3 experiments, vs non-targeting control
Outline: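 Normal human lung fibroblasts (5000 cells/well) were transfected 24 h after plating with 10 nM siNA complexed with RNAiMax and harvested 24 h later without a media change. CTGF mRNA was measured by TaqMan RT-qPCR on Cells-to-CT lysates, with β-actin and GAPDH assayed alongside. Knockdown was calculated by comparative Ct (ΔΔCt) against non-targeting control siNA.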

CTGF mRNA [2] = experiment: CTGF mRNA knockdown (Taqman RT-PCR) after siNA transfection of mouse NIH 3T3 cells; assay type: cell-based; conditions: mouse NIH3T3 cells, 10 nM siNA, 24 hrs, average of 3 experiments, vs non-targeting control
Outline: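 Mouse NIH 3T3 cells, 5000/well, transfected 24 h after plating with siNA at 10 nM final using RNAiMax, 24 h exposure without media change. CTGF mRNA by TaqMan RT-qPCR with GAPDH, knockdown via comparative Ct (2^−ΔΔCt) against non-targeting control siNA.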

## 48073-DC: siNA duplex; sense SEQ ID NO: 111 B GGAGAcAuGGcGuAAAGcc TTB; antisense SEQ ID NO: 112 GGCuuuAcGccAuGucuccUU (sense GGAGACAUGGCGUAAAGCCTT; antisense GGCUUUACGCCAUGUCUCCUU; sense: DNA at AGT, 2'-fluoro at CU, [invAb] at 5' end, 3' end, backbone not given here; antisense: sugars from the 5' end rrrfffmfmffmfmfffffmm, backbone not given here)
CTGF mRNA [1]
  % KD Human: 7 ± 7%
CTGF mRNA [2]
  % KD Mouse: 25 ± 8%

## 48074-DC: siNA duplex; sense SEQ ID NO: 113 B GGAGGAAcuAucccAccAA TTB; antisense SEQ ID NO: 114 UUGGuGGGAuAGuuccuccUU (sense GGAGGAACUAUCCCACCAATT; antisense UUGGUGGGAUAGUUCCUCCUU; sense: DNA at AGT, 2'-fluoro at CU, [invAb] at 5' end, 3' end, backbone not given here; antisense: sugars from the 5' end rrrmfmmmmfmmfffffffmm, backbone not given here)
CTGF mRNA [1]
  % KD Human: 3 ± 9%
CTGF mRNA [2]
  % KD Mouse: 21 ± 2%

## 48075-DC: siNA duplex; sense SEQ ID NO: 115 B ccucAGAcAcuGGuuucGA TTB; antisense SEQ ID NO: 116 UCGAAAccAGuGucuGAGGUU (sense CCUCAGACACUGGUUUCGATT; antisense UCGAAACCAGUGUCUGAGGUU; sense: DNA at AGT, 2'-fluoro at CU, [invAb] at 5' end, 3' end, backbone not given here; antisense: sugars from the 5' end rrrmmmffmmfmfffmmmmmm, backbone not given here)
CTGF mRNA [1]
  % KD Human: 36 ± 9%
CTGF mRNA [2]
  % KD Mouse: 69 ± 2%

## 48076-DC: siNA duplex; sense SEQ ID NO: 117 B AcAGuAGcAcAuuAAuuuA TTB; antisense SEQ ID NO: 118 UAAAuuAAuGuGcuAcuGuUU (sense ACAGUAGCACAUUAAUUUATT; antisense UAAAUUAAUGUGCUACUGUUU; sense: DNA at AGT, 2'-fluoro at CU, [invAb] at 5' end, 3' end, backbone not given here; antisense: sugars from the 5' end rrrmffmmfmfmffmffmfmm, backbone not given here)
CTGF mRNA [1]
  % KD Human: −3 ± 1%
CTGF mRNA [2]
  % KD Mouse: 84 ± 1%

## 48077-DC: siNA duplex; sense SEQ ID NO: 119 B AGGAAGuAAGGGAcAcGAA TTB; antisense SEQ ID NO: 120 UUCGuGucccuuAcuuccuUU (sense AGGAAGUAAGGGACACGAATT; antisense UUCGUGUCCCUUACUUCCUUU; sense: DNA at AGT, 2'-fluoro at CU, [invAb] at 5' end, 3' end, backbone not given here; antisense: sugars from the 5' end rrrmfmffffffmffffffmm, backbone not given here)
CTGF mRNA [1]
  % KD Human: 19 ± 2%
CTGF mRNA [2]
  % KD Mouse: 71 ± 4%

## 48078-DC: siNA duplex; sense SEQ ID NO: 121 B GGuAcuAGcuGAGGuuAuu TTB; antisense SEQ ID NO: 122 AAUAAccucAGcuAGuAccUU (sense GGUACUAGCUGAGGUUAUUTT; antisense AAUAACCUCAGCUAGUACCUU; sense: DNA at AGT, 2'-fluoro at CU, [invAb] at 5' end, 3' end, backbone not given here; antisense: sugars from the 5' end rrrmmffffmmffmmfmffmm, backbone not given here)
CTGF mRNA [1]
  % KD Human: 31 ± 6%
CTGF mRNA [2]
  % KD Mouse: 69 ± 1%

## 48079-DC: siNA duplex; sense SEQ ID NO: 123 B ucAAGAccuGuGccuGccA TTB; antisense SEQ ID NO: 124 UGGcAGGcAcAGGucuuGAUU (sense UCAAGACCUGUGCCUGCCATT; antisense UGGCAGGCACAGGUCUUGAUU; sense: DNA at AGT, 2'-fluoro at CU, [invAb] at 5' end, 3' end, backbone not given here; antisense: sugars from the 5' end rrrfmmmfmfmmmffffmmmm, backbone not given here)
CTGF mRNA [1]
  % KD Human: 21 ± 11%
CTGF mRNA [2]
  % KD Mouse: 17 ± 6%

## 48080-DC: siNA duplex; sense SEQ ID NO: 125 B AGGAAGAuGuAcGGAGAcA TTB; antisense SEQ ID NO: 126 UGUcuccGuAcAucuuccuUU (sense AGGAAGAUGUACGGAGACATT; antisense UGUCUCCGUACAUCUUCCUUU; sense: DNA at AGT, 2'-fluoro at CU, [invAb] at 5' end, 3' end, backbone not given here; antisense: sugars from the 5' end rrrffffmfmfmfffffffmm, backbone not given here)
CTGF mRNA [1]
  % KD Human: 71 ± 2%
CTGF mRNA [2]
  % KD Mouse: 56 ± 2%
